Assay results published in ChEMBL document CHEMBL1143793, “Solid-phase synthesis of Stat3 inhibitors incorporating O-carbamoylserine and O-carbamoylthreonine as glutamine mimics” (Bioorg Med Chem Lett, 2007).

Target: Signal transducer and activator of transcription 3 (Homo sapiens, UniProt P40763)
Experiment: Inhibition of Stat3

Chain of Signal transducer and activator of transcription 3 (P40763 whole entry): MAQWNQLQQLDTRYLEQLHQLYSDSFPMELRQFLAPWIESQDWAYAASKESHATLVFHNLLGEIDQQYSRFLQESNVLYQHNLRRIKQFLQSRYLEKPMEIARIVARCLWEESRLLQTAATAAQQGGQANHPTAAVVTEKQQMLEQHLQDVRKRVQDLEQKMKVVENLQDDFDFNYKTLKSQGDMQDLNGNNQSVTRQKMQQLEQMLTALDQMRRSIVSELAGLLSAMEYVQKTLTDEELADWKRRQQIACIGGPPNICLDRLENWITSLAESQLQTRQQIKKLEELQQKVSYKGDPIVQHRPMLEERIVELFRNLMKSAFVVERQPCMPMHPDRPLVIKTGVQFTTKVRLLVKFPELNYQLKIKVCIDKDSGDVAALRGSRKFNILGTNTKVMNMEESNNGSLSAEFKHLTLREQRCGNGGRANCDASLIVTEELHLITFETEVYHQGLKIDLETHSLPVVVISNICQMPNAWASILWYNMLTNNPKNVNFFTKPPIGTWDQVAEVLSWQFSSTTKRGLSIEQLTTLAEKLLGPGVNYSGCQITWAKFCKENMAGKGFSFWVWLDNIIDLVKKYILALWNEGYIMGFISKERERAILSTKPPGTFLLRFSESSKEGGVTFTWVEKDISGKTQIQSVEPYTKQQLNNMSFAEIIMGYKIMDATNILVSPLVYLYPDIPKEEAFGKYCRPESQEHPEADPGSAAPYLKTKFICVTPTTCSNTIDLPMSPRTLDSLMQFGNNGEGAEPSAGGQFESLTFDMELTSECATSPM

SMILES | IC50 [nM]
CC(C)C[C@H](NC(=O)/C=C/c1ccc(OP(=O)(O)O)cc1)C(=O)N1CCC[C@H]1C(=O)N[C@@H](CCC(N)=O)C(=O)NCc1ccccc1 | 135
CC(C)C[C@H](NC(=O)/C=C/c1ccc(OP(=O)(O)O)cc1)C(=O)N1CCC[C@H]1C(=O)N[C@H](C(=O)NCc1ccccc1)[C@@H](C)OC(N)=O | 850
CC(C)C[C@H](NC(=O)/C=C/c1ccc(OP(=O)(O)O)cc1)C(=O)N1CCC[C@H]1C(=O)N[C@@H](COC(N)=O)C(=O)NCc1ccccc1 | 379
